# Reference: patent US20200323802A1, “SUPPORTING IMMUNOMODULATORY AGENT” (Flexopharm Brain GMBH & Go. KG, priority 2015, published 2020)
# Entries after “also recorded” stand apart in the source; their conditions may differ.
# Key:
# [1] = test system: Treg cells; experiment: Treg cells in MS patients before and after 14 days of treatment with sodium propionate plus MS drug; assay type: in vivo, human; conditions: pooled comparison group, patient-specific dose of the MS drug together with sodium propionate 2×0.5 g daily, before vs after 14 days, FIG. 6
# Excerpt: The disproportionate increase in the amount of Treg cells signifies a corresponding reduction in the autoimmune response.
# [2] = test system: experimental autoimmune encephalomyelitis (EAE); experiment: EAE mouse model: relative axonal density, demyelination of the white matter, CD3+ cells; assay type: in vivo; conditions: propionic acid (DI or OD), FIG. 3
# Experimental: FIG. 3: is a graph showing the effect of propionic acid diet initiated at the time of disease induction (DI) or at the time of onset of symptoms (OD) compared to a diet control group on relative axonal density, demyelination in the white matter, and CD3+ cells in the mouse EAE model.
# (§1) Mice kept under standardized conditions were fed on a normal diet enriched with long-chain fatty acids (30.9% lauric acid) and with 200 μl of propionate daily administered orally. The propionate was given either at the time of disease induction (DI) or at the onset of the disease (OD).
# (§2) For the induction of EAE the mice were anesthetized and administered two subcutaneous injections of a 50 μl emulsion applied to the left and right tail basis and comprising a total of 200 μg MOG35-55 (myelin oligodendrocyte glycoprotein) and 200 μg Freund's adjuvant (CFA) with 4 mg/ml of M. tuberculosis. Pertussis toxin ([…]) was given intraperitoneally on day 0 and day 2 after the induction. The clinical assessment took place on a daily basis using a 5-point scale (SEM). The assessment was as follows:
# The influence of the propionic acid on the relative axonal density, the demyelination of the white matter, and the number of CD3+-cells is shown in FIG. 3.
# [3] = test system: experimental autoimmune encephalomyelitis (EAE); experiment: EAE mouse model, daily clinical assessment on 5-point scale (SEM); assay type: in vivo
# Experimental: as §1, §2
# 0=normal 1=Tail paralysis impairing raising 2=Gait ataxia 3=Paraparesis of hind legs
# Mice showing SEM 4 or 5 were excluded.
# [4] = test system: CD4+CD25+ Foxp3+ Treg; experiment: Levels of CD4+CD25+ Foxp3 regulatory T cells in mouse EAE model; assay type: in vivo
# Experimental: FIG. 4: is a graph showing the effect of propionic acid diet initiated at the time of disease induction (DI) compared to a control group on levels of CD4+CD25+ Foxp3 cells in mouse EAE model
# FIG. 5 is a graph showing the effect of lauric acid diet (250 μM and 500 μM) initiated at the time of disease induction (DI) compared to a control group on levels of CD4+CD25+ Foxp3 cells in mouse EAE model,
# as §1
# as §2, with “(SEM).” for “(SEM). The assessment was as follows:”
# [5] = test system: IL-10; experiment: Gene expression profiling of signature cytokines in EAE mice; assay type: in vivo, mouse; conditions: propionic acid-fed mice with EAE
# Excerpt: (§3) In mice treated with propionic acid, the number of regulatory T cells increases with the changes that occur in the microbiota (CD4+CD25+ Foxp3+ Treg).
# [6] = test system: Foxp3; experiment: as above; assay type: in vivo, mouse; conditions: propionic acid-fed mice with EAE
# Excerpt: as §3
# [7] = test system: TGFβ1; experiment: as above; assay type: in vivo, mouse; conditions: propionic acid-fed mice with EAE
# Excerpt: as §3
# [8] = test system: TH1 and TH17 cells; experiment: Th1/Th17 cells in small bowel and central nervous system in EAE mice; assay type: in vivo; conditions: mouse EAE, lauric acid enriched diet
# Excerpt: Moreover, the aliphatic chain length of the carboxylic acids also affects the […] autoimmunity as well as the regulatory response of Treg in an in vivo mouse model. […] In this context, MS and psoriasis are to be regarded as largely similar.
# [9] = test system: intestinal microbiome; experiment: Influence on composition of the intestinal microbiome; assay type: in vivo; conditions: present in mice
# Excerpt: The inventive acids, in particular propionic acid and butyric acid have an influence on the intestinal physiology and the microbiome present there. In this way, they have an impact on the composition of the microbiome.
compound,measurement,setting,value
CCCCCCCCc1ccc(CCC(N)(CO)CO)cc1 [fingolimod],increase in number of Treg cells by a factor,[1],1.1
glatiramer acetate,increase in number of Treg cells by a factor,[1],1.1
CCC(=O)O [propionic acid],"relative axonal density, demyelination of the white matter and number of CD3+ cells versus control group",[2],significant improvement
same,course of induced disease versus control group,"[3]; MS mouse model (EAE), propionic acid given prophylactically",significant improvement
same,disease progression (SEM) versus control group,"[3]; mouse EAE, propionic acid given orally on the day of onset of disease (OD), FIG. 2",significantly less favorable disease progression than the control group
same,CD4+CD25+ Foxp3 cells versus control group,"[4]; propionic acid administration (DI), FIG. 4",increases; also recorded: significant increase
same,IL-10 gene expression,[5],increased values; also recorded: significant increase
same,Foxp3 gene expression,[6],increased values; also recorded: significant increase
same,TGFβ1 gene expression,[7],increased values; also recorded: significant increase
C/C(O)=C(\C#N)C(=O)Nc1ccc(C(F)(F)F)cc1 [teriflunomide],increase in number of Treg cells by a factor,[1],1.1
CCCCCCCCCCCC(=O)O [lauric acid],TH1 and TH17 cells in the small bowel,[8],significant reduction
same,Th1/Th17 in the central nervous system,[8],accumulation
same,number of Provotellaceae and some families of Phylum Bacteroidetes,[9],reduce significantly
same,CD4+CD25+ Foxp3 cells versus control value,"[4]; lauric acid enriched diet (250 μM and 500 μM), concentration dependent, FIG. 5",reduction
